The values below come from article PMC11819603, “Development of a reliable, sensitive, and convenient assay for the discovery of new eIF5A hypusination inhibitors” (PLOS ONE, 2025).

Where two headings read alike, the source gives them in different places.

In experiment [1] the test system is DHPS. The conditions noted are these: ref 35; read-out: IC50; cited from earlier work.
The target in experiment [2] is T1, DHPS (Homo sapiens, UniProt P49366).
T1 construct: host or cells: E. coli BL21 (DE3)
T1 sequence (P49366 1-369): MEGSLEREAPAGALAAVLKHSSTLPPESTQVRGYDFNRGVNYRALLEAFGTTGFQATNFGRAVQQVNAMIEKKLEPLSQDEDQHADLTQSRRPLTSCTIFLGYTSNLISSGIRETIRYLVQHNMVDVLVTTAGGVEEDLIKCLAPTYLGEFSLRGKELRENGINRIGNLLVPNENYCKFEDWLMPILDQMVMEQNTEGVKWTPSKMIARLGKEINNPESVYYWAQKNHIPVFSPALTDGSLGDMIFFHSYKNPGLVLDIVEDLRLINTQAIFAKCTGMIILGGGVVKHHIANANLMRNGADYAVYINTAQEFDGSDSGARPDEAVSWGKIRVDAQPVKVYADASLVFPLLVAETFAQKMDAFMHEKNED
The experiment in a line: Hyp'Assay: cell-free eIF5A hypusination in 96-well plates (recombinant eIF5A, DHPS, DOHH; anti-hypusine antibody Hpu24), substance present in the DHPS step. The class given is biochemical. The settings on record: for concentration from which inhibition of hypusination was detectable / hypusination signal, Mean (quantification from Figure 5A): 5 μM spermidine; for hypusination signal, Mean (quantification from Figure 5A): control 98,5. The procedure: The principle of the Hyp’Assay (Fig 2A) is to perform eIF5A hypusination reaction in 96-well plates, allow eIF5A to adsorb to the plate, incubate with an anti-hypusine antibody and a secondary antibody conjugated to HRP and reveal hypusination using TMB as a substrate.
(§1) […] Then 10 μL containing 1 μg of DOHH with 10 μM Fe^2+ (H8FeN2O8S2^. 6H2O) were added. After 1 h proteins were analyzed by Western Blot using antibodies toward DHPS, DOHH, Hypusine, and eIF5A.
(§2) The cell-free reaction described in 4.4 is performed in triplicates in a 96-wells plate (MaxiSorp, ThermoFisher) in the presence of 3 μg of eIF5A, 2 μg of DHPS, and 2 μg of DOHH by well. The reaction product, hypusinated eIF5A, is adsorbed onto the plate overnight at 4°C. The plate is washed (100 μL/well) thrice with PBS-T (PBS– 0.05% Tween20), then saturated with 1% non-fat dry milk in PBS-T for 2 h at room temperature. The plate is washed thrice with PBS-T and incubated overnight at 4°C with the anti-hypusine antibody (1:2000 in saturation buffer, 50 μL/well). The next day and after 5 washes with PBS-T, HRP-coupled anti-rabbit secondary antibody diluted 1:5000 in saturation buffer (50 μL/well) is added for 2 h at room temperature.

The test system of experiment [3] is eIF5A hypusination in MCF7 cells. The experiment in a line: eIF5A hypusination in intact MCF7 cells, Western blot. The format is cell-based, human. The conditions noted are these: 40 μM, 24 h, Ctrl 100, 4 experiments. As to the method: We tested the ability of the GC7 analogs to inhibit hypusination in intact cells. MCF-7 cells (Fig 5B), a classical model of breast cancer cell line, and HT29 cells (Fig 5C), a cell model of colorectal cancer, were treated with 40 μM of GC7, 1, 2, 3, and 4 for 24h. Cells were lysed and analyzed by Western blot. As observed, none of the molecules modified eIF5A expression. […] GC7 analogs inhibited hypusination from 35 to 55%.
The human breast cancer cell line MCF7 (HTB-22 ATCC) and colorectal adenocarcinoma HT29 (HTB-38 ATCC) were cultured in DMEM (Gibco) supplemented with 10% FBS (Dutscher), 10 U/mL penicillin, and […] streptomycin. 1 mM of aminoguanidine was added to the medium to inhibit the degradation of GC7 and polyamines by amine oxidase from the serum and the production of reactive oxygen species. Cells were maintained at 37°C, 5% CO2 in a humid atmosphere.
After treatment, cells were washed with ice-cold PBS and lysed in RIPA Buffer (50 mM Tris pH 7.5, 150 mM NaCl, 0.1% SDS, 0.5% Na Deoxycholate, 5 mM NaF, 2.5 mM Na4P2O7, 1% NP4O) containing a protease inhibitor cocktail (complete Roche). 10 μg of proteins were separated by SDS PAGE and transferred to a PVDF membrane (Immobilon-P Millipore). The membranes were probed with the appropriate primary antibody that was detected by horseradish peroxidase-conjugated secondary antibody (Jackson Immunoresearch) and visualized by chemiluminescence (ECL Amersham RPN 3244) using a Fuji LAS-4000 imager. ImageJ® software was used to quantify band intensity and the ratios of proteins of interest were normalized to a loading control. Full-length Western blots are provided in the supplementary data (S19, S20 Figs).
A general note: In western blotting, separated proteins are transferred to a membrane and probed.

The target of experiment [4] is T1, DHPS. The experiment in a line: Hyp'Assay without DOHH: deoxyhypusination of eIF5A revealed with Hpu98 antibody. The format is biochemical.
Source text: To address this issue, we compared the ability of GC7 to inhibit DHPS or DOHH by adding GC7 during the first step of the Hyp’Assay; when DHPS mediates the deoxyhypusination reaction (Fig 2A), or only during the second step, when DOHH hydroxylate deoxyhypusinated eIF5A. […] This confirms the specificity of GC7 towards DHPS. When finding new hypusination inhibitors adding them during the first or the second step of the Hyp’Assay will allow us to determine if the inhibition affects DHPS or DOHH. Another way to discriminate between DHPS or DOHH inhibitors would be to use Hpu98, an antibody that recognized both hypusinated and deoxyhypusinated eIF5A, instead of Hpu24, which is specific for hypusinated eIF5A [18]. […] We performed a new Hyp’Assay by omitting DOHH in the reaction mix and using the Hpu98 antibody. First, we performed a dose response experiment with spermidine at pH: 8.0 and 9.0 (Fig 3E). The Hyp’Assay allows the detection of deoxyhypusinated eIF5A in a spermidine-dependent manner. Under these conditions, deoxyhypusination was equally efficient at both pH tested. […] We also tested the ability of GC7 (Fig 3F) and CPX or EDTA (Fig 3G) to inhibit DHPS. […] This provided us with another method to distinguish between DHPS and DOHH inhibitors.
as §2

Experiment [5] has as its system human DHPS. The conditions noted are these: read-out: Km of human DHPS for spermidine, cited from earlier work.
Experiment [6] concerns the target T2, DOHH (Homo sapiens, UniProt Q9BU89).
T2 construct: pelB leader (N); host or cells: E. coli BL21 (DE3)
T2 sequence (Q9BU89 1-302): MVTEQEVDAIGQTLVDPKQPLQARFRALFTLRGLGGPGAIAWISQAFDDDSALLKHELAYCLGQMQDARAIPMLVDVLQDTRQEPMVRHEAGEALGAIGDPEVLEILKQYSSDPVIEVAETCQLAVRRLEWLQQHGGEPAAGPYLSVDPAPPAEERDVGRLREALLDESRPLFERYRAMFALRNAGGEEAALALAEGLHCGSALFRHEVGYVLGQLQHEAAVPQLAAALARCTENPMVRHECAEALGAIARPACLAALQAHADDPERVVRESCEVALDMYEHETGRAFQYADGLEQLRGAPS
The experiment in a line: Hyp'Assay, substance added after the deoxyhypusination reaction (DOHH step). The class given is biochemical. The conditions noted are these: control 100,0. The procedure: We then tested the ability of DOHH inhibitors to inhibit eIF5A hypusination using the Hyp’Assay. During the Hyp’Assay, DOHH inhibitors were added after the deoxyhypusination reaction.
To address this issue, we compared the ability of GC7 to inhibit DHPS or DOHH by adding GC7 during the first step of the Hyp’Assay; when DHPS mediates the deoxyhypusination reaction (Fig 2A), or only during the second step, when DOHH hydroxylate deoxyhypusinated eIF5A. […] When finding new hypusination inhibitors adding them during the first or the second step of the Hyp’Assay will allow us to determine if the inhibition affects DHPS or DOHH. Another way to discriminate between DHPS or DOHH inhibitors would be to use Hpu98, an antibody that recognized both hypusinated and deoxyhypusinated eIF5A, instead of Hpu24, which is specific for hypusinated eIF5A [18]. […] We performed a new Hyp’Assay by omitting DOHH in the reaction mix and using the Hpu98 antibody. First, we performed a dose response experiment with spermidine at pH: 8.0 and 9.0 (Fig 3E). […] We also tested the ability of GC7 (Fig 3F) and CPX or EDTA (Fig 3G) to inhibit DHPS.
as §1, §2

Setting [7] is: concentration 1 (no unit on page; Fig 5A 0 to 1 mM).
Where [8] appears, read: concentration 10 (no unit on page; Fig 5A 0 to 1 mM).
Setting [9] is: concentration 100 (no unit on page; Fig 5A 0 to 1 mM).
The mark [10] stands for this setting: concentration 1000 (no unit on page; Fig 5A 0 to 1 mM).

The IC50 is the concentration at which inhibition is half-maximal. As for `COc1ccccc1Oc1c(Cl)nc(-c2ccc(I)cc2)nc1Cl` [GL-1, 4,6-dichloro-2-(4-iodophenyl)-5-(2-methoxyphenoxy)pyrimidine], the IC50 in experiment [1] is 210 nM.
As for `N=C(N)NCCCCCCO` [compound 2, 6-hydroxyhexylguanidine], in experiment [2], the “concentration from which inhibition of hypusination was detectable” value (“concentration from which inhibition” below) amounted to 1 µM. In addition, the “hypusination signal, Mean (quantification from Figure 5A)” value in experiment [2] (setting [7]) is 81,3; in experiment [2] (setting [8]), 64,4; in experiment [2] (setting [9]) it was 59,1; in experiment [2] (setting [10]), 44,6. In experiment [3], the “hypusinated eIF5A, Western blot quantification, Mean (Figure 5B)” value (“hypusinated eIF5A” for short) amounted to 44.5.
Take `N=C(N)NCCCCCCCO` [compound 3, 7-hydroxyheptylguanidine]: in experiment [2], the “concentration from which inhibition” value was 1 µM. The “hypusination signal, Mean (quantification from Figure 5A)” value is given as 75,7 in experiment [2] (setting [7]), 65,6 in experiment [2] (setting [8]), 63,6 in experiment [2] (setting [9]) and 58,2 in experiment [2] (setting [10]). In addition, in experiment [3], the “hypusinated eIF5A” value was determined as 50.5.
As for `N=C(N)NCCCCCCCCO` [compound 4, 8-hydroxyoctylguanidine], the “concentration from which inhibition” value in experiment [2] was 100 µM. Moreover, the “hypusination signal, Mean (quantification from Figure 5A)” value in experiment [2] (setting [7]) is given as 109,4; in experiment [2] (setting [8]), 86,9; in experiment [2] (setting [9]) it was 67,2; in experiment [2] (setting [10]), 64,0. The “hypusinated eIF5A” value in experiment [3] came to 64.75.
The EC50 is the concentration needed to bring the measured effect to its halfway point. Broadly, the Km is the concentration of substrate that gives half-maximal velocity. On to `NCCCCNCCCN` [spermidine], for which the “deoxyhypusination signal, Mean (quantification from Figure 3E)” value in experiment [4] (pH: 8.0, spermidine 1 µM as substrate) is given as 0,00; in experiment [4] (pH: 8.0, spermidine 10 µM as substrate), 50,47; in experiment [4] (pH: 8.0, spermidine 100 µM as substrate) it was 87,29; in experiment [4] (pH: 8.0, spermidine 1000 µM as substrate), 98,05; in experiment [4] (pH: 8.0, spermidine 10000 µM as substrate), 100,00; in experiment [4] (pH: 9.0, spermidine 1 µM as substrate) it was 0,00. Besides, the “deoxyhypusination signal, Mean (quantification from Figure 3E)” value is 51,14 in experiment [4] (pH: 9.0, spermidine 10 µM as substrate) and 85,89 in experiment [4] (pH: 9.0, spermidine 100 µM as substrate). Further, the EC50 in experiment [2] worked out at 5000 nM. The “hypusination signal with the substance as substrate, Mean (quantification from Figure S3)” value is reported as 1,46 in experiment [2] (substrate concentration 0,01 (mM)); 31,22 in experiment [2] (substrate concentration 0,1 (mM)); -0,19 in experiment [2] (substrate concentration 0,0001 (mM)); -0,21 in experiment [2] (substrate concentration 0,001 (mM)); 68,32 in experiment [2] (substrate concentration 1 (mM)); 100,00 in experiment [2] (substrate concentration 10 (mM)). For the same molecule, the “hypusination signal with the substance as substrate, Mean (quantification from Figure S3)” value was 86,96 in experiment [2] (substrate concentration 100 (mM)) and 66,59 in experiment [2] (substrate concentration 1000 (mM)). Besides, the Km in experiment [5] (ref 23) was 4 µM; in experiment [5] (ref 24), 7.6 µM. In addition, the “hypusination signal, Mean (quantification from Figure 3C)” value is recorded as 84,83 in experiment [6] (concentration 1 (no unit on page; Fig 3C dose-response 0 to 100 μM)) and 82,59 in experiment [6] (concentration 10 (no unit on page; Fig 3C dose-response 0 to 100 μM)).
